{
  "source": "patent US9295732B2",
  "about": "“Conjugated TLR7 and/or TLR8 and TLR2 polycationic agonists” (CAYLA, priority 2013, dated 2016)",
  "tested_on": "plasmid DNA (pDNA)",
  "experiment": "Gel shift (mobility shift) assay of pDNA complexation",
  "assay_type": "binding",
  "conditions": "pDNA:molecule ratio 3:24 (w:w), 0.8% agarose gel, compared to pDNA alone",
  "description": "Then, 10 μl of pDNA:TLR7-TLR2 polyamine molecule complexes and 2 μl of charge buffer were mixed and loaded into wells of a 0.8% agarose gel. Samples were migrated through the gel in TAE buffer under 135 voltage for 21 mins and the migration of the pDNA was visualized following ethidium bromide staining under UV light. The ability of TLR7-TLR2 polyamine molecules to complex/associate with the pDNA was identified by partial or complete retardation of the pDNA migration toward the anode in the gel compared to pDNA alone. […] Ethidium bromide intercalation of pDNA in complex with molecules allowed visualization of complexed pDNA as a smear in the wells of the gel.",
  "data": [
    {"smiles": "CCCCCCCCCCCCCCCC(=O)OCC(CSC[C@H](N)C(=O)Nc1ccc(Cn2c(O)nc3c(N)nc(NCCCC)nc32)cc1)OC(=O)CCCCCCCCCCCCCCC", "note": "(stereo partly shown) [CL401, reference compound]", "values": [
      {"measurement": "ability to complex pDNA (retardation of pDNA migration in agarose gel)", "result": "lacks the ability to complex pDNA"}
    ]}
  ]
}
